Row | SMILES | melting point [°C]
1 | CC(=O)c1ccccc1NC=O | 65 to 68
2 | CC(C)(C)OC(=O)N[C@@H](CCC(=O)O)C(=O)O | 110 to 113
3 | CC=C(C)Cl | -19
4 | NN=C(c1ccccc1)c1ccccc1 | 96.5
5 | O=C(O)CCCCCC(=O)c1ccccc1 | 85
6 | CC1CCC(C(C)C)C(OCC(=O)O)C1 (configuration not stated) | 54
7 | CC(=O)OCC(=O)C1(O)CCC2(O)C3CCC4=CC(=O)CCC4(C)C3CCC12C (configuration not stated) | 236
8 | O=C(CCCl)c1ccccc1 | 48.5
9 | Cc1ccc(N)cc1NS(C)(=O)=O | 170 to 172
10 | CN1C(CCl)Nc2cc(Cl)c(S(N)(=O)=O)cc2S1(=O)=O (configuration not stated) | 225
11 | O=c1ccoc2ccccc12 | 59
12 | Nc1ccc2cc[nH]c2c1 | 73
13 | N#CCNCC#N | 77
14 | O=C(O)COc1cc(Cl)c(Cl)cc1Cl | 156
15 | O=C(NC(Cc1ccccc1)C(=O)CCl)OCc1ccccc1 (configuration not stated) | 107 to 108
16 | CCC(C)(O)CNC1C2CCC(C)(C1O)C2(C)C (configuration not stated) | 119
17 | CC(F)(Cl)CCl (configuration not stated) | -91.7
18 | CC1(C)CCCC(O)C1 (configuration not stated) | 11.5
19 | Clc1cccc(C(Cl)(Cl)Cl)c1 | 0.6
20 | CCC(COC(=O)c1cc(OC)c(OC)c(OC)c1)(c1ccccc1)N(C)C (configuration not stated) | 79
21 | Nc1ncnc2c1ncn2[C@H]1C=C[C@@H](CO)O1 | 189 to 191
22 | Cc1ccc(S(=O)(=O)N(C)Cc2ccc(N)cc2)cc1 | 155
23 | CCCCCCCCC=CCCCCCCCCOC(=O)OC1CCC2(C)C(=CCC3C2CCC2(C)C(C(C)CCCC(C)C)CCC32)C1 (configuration not stated) | 20
24 | OCC1OC(OC2OC(CO)C(O)C(O)C2O)C(O)C(O)C1O (configuration not stated) | 203
25 | CN(C)c1ccc(C(Br)=NNc2ccc([N+](=O)[O-])cc2)cc1 | 188

Row | SMILES | melting point [°C]
26 | Cc1c(F)c(F)c(COC(=O)C2C(C=C(Cl)C(F)(F)F)C2(C)C)c(F)c1F (configuration not stated) | 44.6
27 | NC(=O)Nc1ccccn1 | 173 to 175
28 | CCCCCC(=O)OCCCC | -64.3
29 | CCCCCCCCCCCCN1c2ccccc2C(C)(C)C12C=Cc1cc([N+](=O)[O-])ccc1O2 (configuration not stated) | 109
30 | O=S(=O)(c1ccccc1)n1c(CBr)cc2ccccc21 | 116 to 117
31 | COc1cc2c(cc1O)[C@H](C)N(C)CC2 | 182
32 | Cc1ccc(N)cc1[N+](=O)[O-] | 76.5
33 | O=[N+]([O-])c1ccccc1-c1ccccc1[N+](=O)[O-] | 126
34 | Cc1ccccc1N1CSc2nnc(-c3cccnc3)n2C1 | 202
35 | CC(C)(C)OC(=O)N1CCC(Oc2ccccc2N)CC1 | 71 to 78
36 | CCCCCCC(=O)OCCC | -63.5
37 | CN(C)c1ccccc1N(C)C | 8.9
38 | O=S(=O)(Cl)c1cccc(Br)c1 | 32
39 | O=[N+]([O-])c1cc(Cl)ccc1Br | 70
40 | c1ccc(-c2nc3ccccc3nc2-c2ccc3ccccc3c2)cc1 | 121 to 122
41 | COC(=O)c1ccccc1SCC(C)=O | 60 to 61
42 | COC(=O)c1ccc(S(=O)(=O)NC(C)(C)C)n1C | 104 to 105
43 | CCOC(=O)C(Br)C(C)Br (configuration not stated) | 58.5
44 | Cn1ccnc1C=O | 35 to 39
45 | O=S(=O)(Cl)C(Cl)(Cl)Cl | 140
46 | CCOC(=O)CCC(=O)CC1(O)C2(Cl)C3(Cl)C4(Cl)C(Cl)(Cl)C5(Cl)C3(Cl)C1(Cl)C5(Cl)C42Cl (configuration not stated) | 91
47 | FC(F)(F)C(F)(F)C(F)(F)C(F)(F)C(F)(F)C(F)(F)C(F)(F)F | -78
48 | NCCc1cccc(CCO)c1 | 264
49 | Nc1ccc(Br)nc1 | 77
50 | Cc1ccc(S(=O)(=O)OC2CCC3(C)C(CCC4C5CCCC5(C)CCC43)C2)cc1 (configuration not stated) | 129 to 131

Row | SMILES | melting point [°C]
51 | CC(C)C[C@@H](CC#N)NC(=O)OC(C)(C)C | 75 to 77
52 | CC1(C)C2CCC(O2)C(Cl)C1O (configuration not stated) | 71 to 72
53 | O=[N+]([O-])c1ccc(SCCO)cc1 | 60 to 61
54 | CCCCOC(=O)CCCC | -92.8
55 | O=[N+]([O-])c1ccc(C(Cl)C(Cl)c2cccc(C(Cl)C(Cl)c3ccc([N+](=O)[O-])cc3[N+](=O)[O-])c2)c([N+](=O)[O-])c1 (configuration not stated) | 90 to 108
56 | O=C1c2ccccc2-c2ccc3c4c(ccc1c24)-c1ccccc1C3=O | 385
57 | COc1cc(C2c3cc4c(c(O)c3CC3COC(=O)C32)OCO4)cc(OC)c1OC (configuration not stated) | 234
58 | BrCc1ccc(-c2ccccc2)cc1 | 86 to 87
59 | Br/C=C/Br | -6.5
60 | ClC(Cl)c1ccc(C(Cl)Cl)cc1 | 92 to 93
61 | Nc1ccc(S(=O)(=O)O)cc1 | 365
62 | O=[N+]([O-])c1cc(C(F)(F)F)c(Cl)c([N+](=O)[O-])c1Nc1ncc(C(F)(F)F)cc1Cl | 117
63 | Nc1cc(Cl)c(Cl)c(Cl)c1 | 99
64 | C1CCC(N2CCNCC2)CC1 | 28 to 32
65 | CC(C)(C(=O)N1C(=O)C=CC1(C)C)C(=O)N1C(=O)C=CC1(C)C | 128
66 | N#CC(c1ccc(O)cc1)N1CCOCC1 (configuration not stated) | 148 to 150
67 | Clc1ccc(O[Si]23OCCN(CCO2)CCO3)cc1 | 166
68 | O=C(C[N+](=O)[O-])c1cccc(C(=O)C[N+](=O)[O-])c1 | 160
69 | CCCCCCOC(=O)CCC | -78
70 | O=[N+]([O-])c1ccc(NN=C(c2ccccc2)c2ccccc2)cc1 | 156
71 | CCOC(=O)CCCC(=O)OCC | -24.1
72 | CCN(CC)C(C)CN1c2ccccc2Sc2ccccc21 (configuration not stated) | 53
73 | FC(F)(F)C1(F)C(F)(F)C(F)(F)C(F)(F)C(F)(F)C1(F)C(F)(F)F (configuration not stated) | -56

Continued, values first:

Row | melting point [°C] | SMILES
74 | 186 | COC(=O)C1=C(C)NC(C)=C(C(=O)OC)C1c1ccco1
75 | 90 | O=C(CCl)c1cccc(C(=O)CCl)c1
76 | 187 | CC(=O)Nc1ccc(OC(=O)c2ccccc2O)cc1
77 | -80 | FC(Br)C(F)(F)F (configuration not stated)
78 | 10 | Cc1cc2c(cc1C)CCCC2
79 | 27 | CCCCC(=O)c1ccc(F)cc1
80 | 61 | C/C(Cl)=C/C(=O)O
81 | 145 to 150 | NC(=S)c1cc(Cl)nc(Cl)c1
82 | 284 | Cn1c(=O)c(C2=NNC(=O)C2=NNc2cc(Cl)ccc2Cl)c(O)c2ccccc21
83 | 68 to 69 | CCOC(=O)C=Cc1ccc(OC)c(OC)c1Cl
84 | 208 | Cc1ccc2[nH]c3ccccc3c2c1
85 | 202 | Cc1c(O)ncnc1Cl
86 | 232 to 234 | O=C(O)C=Cc1ccc(Sc2ccc(Br)cc2)c([N+](=O)[O-])c1
87 | 160 | N#C/C(=N/Nc1ccccc1Cl)c1nc(-c2ccccc2)cs1
88 | 41 | Cc1ccc(C(C)C(=O)O)cc1 (configuration not stated)
89 | 164 to 169 | O=C(O)c1ccccc1S
90 | 122 | CC(CN1C(=O)c2cccnc2Nc2ccccc21)N(C)C (configuration not stated)
91 | 79 | COc1cc(N)c(C(c2ccc(C)o2)c2ccc(C)o2)cc1OC
92 | 80 | Fc1ccc(P(c2ccc(F)cc2)c2ccc(F)cc2)cc1
93 | 163 | O=C1C=CC(=O)c2c(Cl)cccc21
94 | 280 | O=C1/C(=N\Nc2cc(-c3ccccc3)n[nH]2)C(C(F)(F)F)=NN1c1ccccc1
95 | 206 | O=C(O)c1cnc2ccccc2n1
96 | 128 | CCOC(=O)c1sc(-c2ccc(N)cc2)nc1C
97 | 61 | Fc1ccc2ccccc2c1
98 | 172 to 174 | Oc1c(F)c(F)c(O)c(F)c1F
99 | 211 to 212 | CSc1nc2cc([N+](=O)[O-])ccc2[nH]1
100 | 194 | O=[N+]([O-])c1ccc(Nc2ccc(O)cc2)c([N+](=O)[O-])c1

Row | melting point [°C] | SMILES
101 | 152 | COc1ccc(-c2nnc3n2NC(c2ccc(OC)cc2)S3)cc1 (configuration not stated)
102 | 262 | O=C(Nc1ccc2ncccc2c1)Nc1ccc2ncccc2c1
103 | 138 to 140 | CCc1nc(N)nc(Cl)c1C
104 | 32 | CCN(CC)c1ccc(N=C=S)cc1
105 | 174 | ClCc1c(Cl)c(Cl)c(CCl)c(Cl)c1Cl
106 | 215 | Nc1ccc(C(=O)O)cc1F
107 | 194 to 196 | Cc1nn(-c2ccccc2)c2oc3sccc3c(=S)c12
108 | 220 to 223 | O=C(O)Cc1n[nH]c(=O)c2ccccc12
109 | 144 to 149 | COc1cc(O)c(C(C)=O)c(O)c1
110 | 173 | Cc1ccc(C(=O)C2=NOC3C(=O)N(c4ccc(F)cc4)C(=O)C23)cc1 (configuration not stated)
111 | 171 to 173 | NC(=O)Cc1ccc(F)cc1Cl
112 | 195 | CC(=O)NC(Cc1c[nH]c2ccccc12)C(N)=O (configuration not stated)
113 | 175 | O=C(O)c1cc(I)ccc1Br
114 | 54 to 57 | OC(c1ccccc1)c1c(F)c(F)c(F)c(F)c1F (configuration not stated)
115 | 186 | CCOC(=O)c1sc(N)nc1C(F)(F)F
116 | 182 | Nc1ccc(S(=O)(=O)NC(=O)c2ccccc2)cc1
117 | 146 to 149 | CCCCCn1c(O)nnc1S
118 | 205 | NC(=O)c1sc(Nc2ccccc2)nc1N
119 | 191 | O=C(O)c1ccc(F)cc1O
120 | 261 to 267 | NC(Cc1c[nH]c2ccc(Br)cc12)C(=O)O (racemic)
121 | 111 | O=C(O)CCSc1ccc(Br)cc1
122 | 94 to 95 | Cc1nc(Cl)c2c3c(sc2n1)CCCC3
123 | 67 to 69 | O=C(O)CCCc1ccc(Br)cc1
124 | 198 to 201 | Cc1ccc(C=CC(=O)O)cc1
125 | 284 to 288 | O=[N+]([O-])c1ccc2c(c1)-c1cccc([N+](=O)[O-])c1C2
126 | 68 | Oc1c(Cl)cc(Cl)cc1Br
127 | > 140 | CCOC(=O)c1c(-c2ccccc2)[nH]c2cc3[nH]c(-c4ccccc4)c(C(=O)OCC)c3cc12

Source: a melting point compilation (Tetko et al.)
